# From article PMC12389442, “Towards a Consensus for the Analysis and Exchange of TFA as a Counterion in Synthetic Peptides and Its Influence on Membrane Permeation” (Pharmaceuticals, 2025)
# Assays:
# [1] = cited from earlier work
# [2] = at the concentrations used in the liposomal assay; cited from earlier work
# [3] = liposomal fluorescence assay (HPTS) for passive membrane permeation
# Procedure: (§1) To investigate the influence of TFA^− and Cl^− as counterions on the membrane permeation of synthetic peptides, a liposomal fluorescence assay was performed as previously described [37, 38]. The assay relies on the change in fluorescence of HPTS correlating to the liposomal internal pH change altered by permeation of an acidic or basic compound across the phospholipid bilayer. […] We first evaluated the impact of counterions on the permeation kinetics of the CPPs. Fitted biexponential curves and calculated log Permapp values are shown if the obtained normalized RMSE was <0.10. […] Control experiments with TFA and HCl are also shown for reference. […] To complement the CPP study, we also investigated peptides AT 1–4 in the permeation assay.
# (§2) To investigate the influence of the counterions on the membrane permeability of peptides, a liposomal fluorescence assay was performed using a previously described method adapted to a plate reader [37, 38].
# [4] = direct pH measurement of aqueous peptide salt solutions; format: physicochemical; settings: before exchange (TFA salt), about 2–2.4 mg/mL peptide salt
# Source text: Direct pH measurements of aqueous solutions of peptides present as TFA, as well as Cl salts, were acidic in a pH range below 3 (exact values can be found in the Supporting Information). […] Strong counterions as Cl^− and TFA^− may shield the positive charges and hydrogen bond donors, facilitating permeation as a net neutral complex. The complex then dissociates in the unbuffered internal liposomal phase, into a weak base (peptide) and a strong acid (HCl or TFA), resulting in the release of protons leading to acidification and a decrease in fluorescence. This assumption would align with the concept of hydrophobic ion pairing, described to enhance the membrane permeability of charged molecules in drug delivery. Our findings confirm results of previous studies that counterions cannot be neglected and the salt form might affect the membrane permeation behavior of peptides, among other things. Given that counterions are often unreported in the literature, we herein emphasize the need for explicit consideration and clarification in peptide-based permeation assays and further functional studies.
# Table S8: pH measurements of AT1-4 peptide salt in aq. solution after exchange and lyophilization
# Before Conc. peptide 2.38 2.38
# [5] = not told
# Procedure: as §1, §2
# [6] = peptide integrity during counterion exchange with aq. HCl, HPLC-UV; format: physicochemical
# Procedure: As degradation issues in aqueous acidic solutions have been reported previously, the integrity of AT 1 during counterion exchange with the different concentrations of HCl was measured with HPLC-UV. […] Similar results could be found for all other peptides under investigation (Supplementary Materials Section S3). […] Nevertheless, the stability of the peptide as well as the counterion exchange efficacy may vary, depending on the peptide sequence. Therefore, the TFA^− content as well as the purity should always be confirmed after counterion exchange.
# For the counterion exchange of TFA^− with Cl^−, the peptide salt was dissolved in a diluted aqueous HCl solution at a concentration of 1 mg/ml. […] To evaluate the influence of the peptide sequence, counterion exchange was also performed for AT 2, AT 3, and AT 4 with the optimally determined salt concentration of 10 mM. […] For all peptide samples, the content of counterions was measured by FT-IR, ^19F-NMR, and HPLC-ELSD before the exchange as well as after each lyophilization cycle (Ex 0, Ex 1, Ex 2, and Ex 3). […] HPLC-ELSD samples containing 0.75 mg/mL peptide salt in H2O were measured in triplicate with an injection volume of 5 and 20 µL. The purity of the samples was monitored during the counterion exchange with a 0.25 mg/mL peptide salt solution according to the purity method described below. […]
# [7] = counterion (TFA−, Cl−, Na+) content of peptide salt by HPLC-ELSD during HCl exchange; format: physicochemical
# Procedure: The TFA^− content in samples was quantified using three analytical methods, namely FT-IR, ^19F-NMR, and HPLC-ELSD, adapted from previous publications. The methods are described in detail in the Supplementary Materials Section S2. In short, FT-IR spectra were recorded in aqueous solution at a wavelength from 4000 cm^−1 to 600 cm^−1 (PerkinElmer Inc., Waltham, MA, USA). The absorbance maxima in the TFA^− absorbance range of 1210 to 1190 cm^−1 were determined using Python (3.10.10, https://docs.python.org/3/reference (accessed 22 April 2024)). The ^19F-NMR (Bruker Avance III 400 MHz NMR spectrometer, Bremen, Germany) measurements were performed in 10% deuterium oxide (D2O; >99.9 atom% D, Apollo Scientific, Bredbury, United Kingdom) in H2O (nanopure water, in-house water purification system ELGA Purelab, Villmergen, Switzerland) and the signal areas were determined via auto-integration. The HPLC-ELSD (VWR ELITE Lachrome Series, Dietikon, Switzerland) method was used under isocratic conditions with a mobile phase consisting of 40% 20 mM ammonium formate (≥99%, Sigma Aldrich, Buchs, Switzerland) in H2O (pH 4.0) and 60% acetonitrile (ACN; HPLC gradient grade, ≥99.9%, Sigma Aldrich, Buchs, Switzerland). Separation was achieved on an Acclaim Trinity P1 column (3 mm × 100 mm, Thermo Fisher Scientific, Sunnyvale, CA, USA) allowing for the simultaneous detection of TFA^−, Cl^−, and Na^+. Retention times were determined by single injection of analytes and quantification performed via peak area. All analytical methods were validated according to the ICH guidelines. For each analysis method, calibrators with concentrations in the corresponding quantitative range for TFA^− (additionally, Na^+ and Cl^− for HPLC-ELSD) were prepared and aliquoted for each validation day (4 days for FT-IR and ^19F-NMR, 8 days for HPLC-ELSD). Quality control (QC) samples (QC low, med, and high) were prepared independently. All aliquots were stored at 5 °C. Over a period of 7 (FT-IR and ^19F-NMR) or 21 days (HPLC-ELSD), daily regression curves were determined using the generalized least squares regression model. For the ^19F-NMR and FT-IR method, a linear model was used, and for the HPLC-ELSD method a polynomial model. Weightings of x, 1/x, and 1/x^2 were considered for the calibration curves. The accuracy was determined by comparing the established concentration of the QC sample concentration and the theoretical concentration. Bias and intra- and inter-day precision (RSDR and RSDT) were calculated according to Peters et al.. […] The limit of detection (LoD) and limit of quantification (LoQ) for the FT-IR and ^19F-NMR methods were calculated according following ICH guidelines based on the standard deviation of the response and slope. As a quadratic regression curve was determined for the HPLC-ELSD method, LoD and LoQ were determined using the signal-to-noise approach. To assess the stability of the calibration curve, the concentration of the QCs for each day was recalculated with the calibration curve established on the first day and the bias was determined by comparison with the theoretical value calculated.
# For the counterion exchange of TFA^− with Cl^−, the peptide salt was dissolved in a diluted aqueous HCl solution at a concentration of 1 mg/ml. […] To evaluate the influence of the peptide sequence, counterion exchange was also performed for AT 2, AT 3, and AT 4 with the optimally determined salt concentration of 10 mM. […]
compound,measurement,setting,value
"H-LLIILRRRIRKQAHAHSK-OH [pVEC, H2N-LLIILRRRIRKQAHAHSK-COOH]",hemolytic activity,[1],general hemolytic activity is described
same,POPC membrane disruption,[2],no POPC membrane disruption was observed
same,passive membrane permeation (qualitative),[3]; Cl salt,did not detect permeation
same,passive membrane permeation (qualitative),[3]; TFA salt,showed passive permeation
same,Log Permapp,"[3]; TFA salt, 50 µM peptide solution added to liposomes, outer phase pH 6.0, 28.5 °C, ± standard error of the fit, n = 3",-6.913 ± 0.048 cm/s
"H2N-DRVYIHPF-COOH (H-DRVYIHPF-OH) [AT 2, angiotensin peptide synthesized by SPPS]",pH of peptide salt in aq. solution,[4],2.63
H-KETWWETWWTEWSQPKKKRKV-OH [Pep1],influence of type of counterion on passive permeation,[5],"influence the amplitude of the permeation curve, although the overall log Permapp remained similar"
same,permeation kinetics / fluorescence change (qualitative),[5],biexponential kinetics were observed
"CC[C@H](C)[C@H](NC(=O)[C@H](CCCCN)NC(=O)[C@@H](NC(=O)[C@H](CCC(N)=O)NC(=O)[C@@H](N)CCCNC(=N)N)[C@@H](C)CC)C(=O)N[C@@H](Cc1c[nH]c2ccccc12)C(=O)N[C@@H](Cc1ccccc1)C(=O)N[C@@H](CCC(N)=O)C(=O)N[C@@H](CC(N)=O)C(=O)N[C@@H](CCCNC(=N)N)C(=O)N[C@@H](CCCNC(=N)N)C(=O)N[C@@H](CCSC)C(=O)N[C@@H](CCCCN)C(=O)N[C@@H](Cc1c[nH]c2ccccc12)C(=O)N[C@@H](CCCCN)C(=O)N[C@@H](CCCCN)C(N)=O [AntP, H2N-RQIKIWFQNRRMKWKK-CONH2]",influence of type of counterion on passive permeation,[5],unaffected by the type of counterion
same,permeation kinetics / fluorescence change (qualitative),[5],biexponential kinetics were observed
"H2N-DRVYIHPFHL-COOH (H-DRVYIHPFHL-OH) [AT 1, angiotensin model peptide synthesized by SPPS]",pH of peptide salt in aq. solution,[4],2.59
same,degradation products during counterion exchange,[6]; HCl up to 100 mM,No degradation products were observed
same,purity during counterion exchange (stability in aq. HCl),"[6]; all HCl concentrations (0–100 mM), over three exchange cycles",above 96%
same,Cl− content relative to expected value based on stoichiometric exchange,"[7]; 10 mM HCl, single cycle",99.0%
same,TFA− content of peptide salt,"[7]; after one exchange cycle with 10 and 100 mM HCl, below LoQ of all techniques",below 1 % (w/w)
same,TFA− content of peptide salt,"[7]; after purification, before exchange, HPLC-ELSD",0.333 ± 0.008 mg TFA^− per mg peptide salt
same,TFA− content of peptide salt,"[7]; control 0 mM HCl, after three exchange cycles",0.215 ± 0.023 mg TFA^− per mg peptide salt
same,Cl− content of peptide salt,"[7]; exchanged with 10 mM HCl, after a single cycle",0.098 mg per 1 mg peptide salt
H2N-VYIHPF-COOH [AT 4],pH of peptide salt in aq. solution,[4],2.39
H2N-RVYIHPF-COOH [AT 3],pH of peptide salt in aq. solution,[4],2.63
